Assay results from ChEMBL document CHEMBL1201862, “PubChem BioAssay data set” (2004).
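Step 1: Grow cells in 96-well plates. Step 2: Expose to compound for 48 hours at 5 concentrations. Step 3: Interpolate endpoints linearly; if unreached, use highest concentration. GI50 = concentration required for 50% inhibition of growth.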 The source made the active and inactive calls. Cut-off read from the data, not from the text of the source: active = GI50 up to about 1.1 µM and inactive = higher.

How the values were obtained:
Experiment in all cases: DTP human tumour cell line panel, 48 h
[1] = system: 786-0
[2] = system: BT-549
[3] = system: CCRF-CEM
[4] = system: COLO 205
[5] = system: HCT-15
[6] = system: HOP-92
[7] = system: Hs-578T
[8] = system: MDA-MB-231
[9] = system: MDA-MB-435
[10] = system: MDA-N
[11] = system: NCI-H23
[12] = system: NCI-H460
[13] = system: OVCAR-8
[14] = system: PC-3
[15] = system: RXF 393
[16] = system: SF-295
[17] = system: SK-MEL-28
[18] = system: SK-MEL-2
[19] = system: TK-10

CC(C)(C)c1ccc(O)c(CN(Cc2cc(C(C)(C)C)ccc2O)C2CCCCC2)c1
GI50 [1]: 16 µM (inactive) | GI50 [2]: 19.8 µM (inactive) | GI50 [3]: 27.5 µM (inactive) | GI50 [4]: 2.2 µM (inactive) | GI50 [5]: 20.7 µM | GI50 [6]: 16 µM (inactive) | GI50 [7]: 22.6 µM (inactive) | GI50 [8]: 18 µM (inactive) | GI50 [9]: 14.5 µM (inactive) | GI50 [10]: 14.7 µM (inactive) | GI50 [11]: 20.4 µM (inactive) | GI50 [12]: 16.7 µM (inactive) | GI50 [13]: 15.9 µM (inactive) | GI50 [14]: 17.5 µM (inactive) | GI50 [15]: 17.4 µM (inactive) | GI50 [16]: 17.7 µM (inactive) | GI50 [17]: 14.5 µM (inactive) | GI50 [18]: 18.5 µM (inactive) | GI50 [19]: 17.7 µM (inactive)

Fc1ccc(C(OCCN2CCN(CCCc3ccccc3)CC2)c2ccc(F)cc2)cc1
GI50 [2]: 7.05 µM (inactive) | GI50 [3]: 4.5 µM (inactive) | GI50 [4]: 2.75 µM (inactive) | GI50 [5]: 3.45 µM | GI50 [6]: 3.5 µM (inactive) | GI50 [7]: 3.26 µM (inactive) | GI50 [8]: 3.15 µM (inactive) | GI50 [9]: 3.63 µM (inactive) | GI50 [10]: 4.06 µM (inactive) | GI50 [11]: 4.04 µM (inactive) | GI50 [12]: 4.34 µM (inactive) | GI50 [13]: 3.92 µM (inactive) | GI50 [14]: 3.44 µM (inactive) | GI50 [15]: 3.67 µM (inactive) | GI50 [16]: 4.39 µM (inactive) | GI50 [17]: 9.73 µM (inactive) | GI50 [18]: 3.75 µM (inactive) | GI50 [19]: 5.77 µM (inactive)

C[C@]12CCC(=O)C=C1CC[C@@H]1[C@@H]2[C@@H](O)C[C@@]2(C)[C@H]1CC[C@]2(O)C(=O)COC(=O)C1CCCC1
GI50 [1]: > 100 µM (inactive) | GI50 [2]: > 100 µM (inactive) | GI50 [3]: 7.73 µM (inactive) | GI50 [4]: > 100 µM (inactive) | GI50 [5]: > 100 µM | GI50 [6]: > 100 µM (inactive) | GI50 [7]: > 100 µM (inactive) | GI50 [8]: > 100 µM (inactive) | GI50 [9]: > 100 µM (inactive) | GI50 [10]: > 100 µM (inactive) | GI50 [11]: > 100 µM (inactive) | GI50 [12]: 87.3 µM (inactive) | GI50 [13]: > 100 µM (inactive) | GI50 [14]: > 100 µM (inactive) | GI50 [15]: > 100 µM (inactive) | GI50 [16]: > 100 µM (inactive) | GI50 [17]: > 100 µM (inactive) | GI50 [18]: > 100 µM (inactive) | GI50 [19]: > 100 µM (inactive)

Nc1nc(Cl)cc(NCC2(CO)CC(c3ccccc3)C2)n1 (configuration not stated)
GI50 [1]: > 100 µM (inactive) | GI50 [2]: 29.3 µM (inactive) | GI50 [3]: 27 µM (inactive) | GI50 [4]: 29.1 µM (inactive) | GI50 [5]: 53 µM | GI50 [6]: 22.3 µM (inactive) | GI50 [7]: 19.2 µM (inactive) | GI50 [8]: 26.4 µM (inactive) | GI50 [9]: 29.9 µM (inactive) | GI50 [10]: 31 µM (inactive) | GI50 [11]: 3.57 µM (inactive) | GI50 [12]: 43.4 µM (inactive) | GI50 [13]: 34.7 µM (inactive) | GI50 [14]: 18 µM (inactive) | GI50 [15]: 58.9 µM (inactive) | GI50 [16]: > 100 µM (inactive) | GI50 [17]: 53.3 µM (inactive) | GI50 [18]: 62.4 µM (inactive) | GI50 [19]: 95.1 µM (inactive)

Fc1cccc(C2ON=C(c3ccccc3)N2C23CC4CC(CC(C4)C2)C3)c1 (configuration not stated)
GI50 [1]: > 10 µM (inactive) | GI50 [2]: > 10 µM (inactive) | GI50 [4]: > 10 µM (inactive) | GI50 [5]: > 10 µM | GI50 [6]: > 10 µM (inactive) | GI50 [7]: > 10 µM (inactive) | GI50 [8]: > 10 µM (inactive) | GI50 [9]: > 10 µM (inactive) | GI50 [10]: > 10 µM (inactive) | GI50 [11]: > 10 µM (inactive) | GI50 [12]: > 10 µM (inactive) | GI50 [13]: > 10 µM (inactive) | GI50 [14]: > 10 µM (inactive) | GI50 [15]: > 10 µM (inactive) | GI50 [16]: > 10 µM (inactive) | GI50 [17]: > 10 µM (inactive) | GI50 [18]: > 10 µM (inactive) | GI50 [19]: > 10 µM (inactive)

O=C1c2ccccc2C(=O)c2c1sc1nc3ccccc3n21
GI50 [1]: 2.15 µM (inactive) | GI50 [2]: 1.98 µM (inactive) | GI50 [3]: 1.94 µM (inactive) | GI50 [4]: 1.8 µM (inactive) | GI50 [5]: 1.36 µM | GI50 [6]: 10.4 µM (inactive) | GI50 [7]: 0.0239 µM (active) | GI50 [8]: 2.02 µM (inactive) | GI50 [9]: 2.11 µM (inactive) | GI50 [10]: 1.79 µM (inactive) | GI50 [11]: 1.29 µM (inactive) | GI50 [12]: 1.79 µM (inactive) | GI50 [13]: 1.9 µM (inactive) | GI50 [14]: 2.64 µM (inactive) | GI50 [15]: 1.79 µM (inactive) | GI50 [16]: 1.66 µM (inactive) | GI50 [19]: 4.19 µM (inactive)

COc1cc(OC)nc(-n2c(N)c(C(=O)O)c3ccc([N+](=O)[O-])cc3c2=O)n1
GI50 [1]: > 100 µM (inactive) | GI50 [2]: > 100 µM (inactive) | GI50 [3]: 63.1 µM (inactive) | GI50 [4]: > 100 µM (inactive) | GI50 [5]: > 100 µM | GI50 [7]: > 100 µM (inactive) | GI50 [8]: > 100 µM (inactive) | GI50 [9]: > 100 µM (inactive) | GI50 [10]: > 100 µM (inactive) | GI50 [11]: > 100 µM (inactive) | GI50 [12]: > 100 µM (inactive) | GI50 [13]: > 100 µM (inactive) | GI50 [14]: > 100 µM (inactive) | GI50 [15]: > 100 µM (inactive) | GI50 [16]: > 100 µM (inactive) | GI50 [17]: 97.7 µM (inactive) | GI50 [18]: > 100 µM (inactive)
